Values after ≈ are worked out from the molar mass of the structure shown.
How the values were obtained:
[1] = Solubility / saturation point of rapamycin in solvents; format: physicochemical; conditions: xylene at 20° C.
Description: Rapamycin has a molecular weight of 914.17 g/mol and molecular formula: C51H79NO13 (see also FIG. 1). It is insoluble in water, but soluble in ethanol (2 mM), methanol (25 mg/mL), DMSO (25 mg/mL), chloroform, (5 mg/mL), ether, acetone and N,N-dimethylformamide. As commercially supplied, rapamycin exists as one isomer (structurally homogeneous) in the solid form as indicated by X-rays whereas in solution there are two conformational isomers (approx. 4:1) which exist in equilibrium.
As a general matter, the macrolide therapeutic can be dissolved and/or dispersed in a desired amount in a solvent, or mixture of solvents, for forming the macrolide particulates. As a general matter, dependent on the solvent or solvent combination, as well as the macrolide being dissolved, it is understood in the composition that the macrolide can display a maximum solubility at a predetermined temperature, such as about 20° C. At the maximum solubility a solution can be referred to as “saturated.” The amount of macrolide dissolved can be described in conventional terms such as mg/mL, % (wt/vol), or molar. For example, the saturation point of rapamycin in many solvents is in the range of 15 mg/mL to 150 mg/mL. […]

[2] = cited from earlier work

saturated solution concentration in xylene [1]: about 75 mg/mL
Structure (SMILES): CO[C@H]1C[C@@H]2CC[C@@H](C)[C@@](O)(O2)C(=O)C(=O)N2CCCC[C@H]2C(=O)O[C@H]([C@H](C)C[C@@H]2CC[C@@H](O)[C@H](OC)C2)CC(=O)[C@H](C)/C=C(\C)[C@@H](O)[C@@H](OC)C(=O)[C@H](C)C[C@H](C)/C=C/C=C/C=C/1C [Rapamycin, rapamycin]
solubility in chloroform ([2]; chloroform): 5000 µg/mL (≈ 5.47 mM)
solubility in ethanol ([2]; ethanol): 2000 µM (≈ 1830 µg/mL)
solubility in ether, acetone and N,N-dimethylformamide ([2]; ether, acetone, N,N-dimethylformamide): soluble
solubility in water ([2]; water): insoluble

Source: patent US9770537B2, “Solvent methods for preparing crystalline macrolide particulates, compositions, and articles containing particulates” (SurModics, Inc., priority 2013, dated 2017)
